# What was measured:
# [1] = tested on: CDNR4 cells; assay type: cell-based, murine
# Procedure: Following the cessation of the calibrated stress conditions exposure, the SR assay raw data is collected in the form of positive and negative wells (or cell growth sites) and in the form of viable or dead cell clones. The next steps of the assay involve expanding viable clones and determining their phenotypes. When the phenotype of interest being investigated in the SR assay is cell survival, the clones can be sub-classified using the testing listed in Table 6. This testing is performed as follows. Clones are removed from the tissue culture vessels in which they were placed before the start of the calibrated stress conditions exposure (using methods appropriate for the cell type), and subdivided into 4 different aliquots. Each aliquot is re-plated in an appropriate tissue culture vessel in medium containing the following. For one aliquot, the medium is growth medium (conditioned medium may be used) only; for a second aliquot the medium is supplemented with guanosine or folic acid at a concentration sufficient to enhance the survival and expansion of HPRT^− clones; for a third aliquot, the medium contains the same level of agent as used for the calibrated stress condition exposure, and the fourth aliquot is placed in HAT-medium containing an amount of aminopterin that is sufficient to induce growth arrest and/or cell death in Phen-HPRT^− cells of the cell type of interest (see above). Cell morphology (where informative for cell behavior and/or gene expression) and cell growth are monitored over the next 2, to 4 days to determine the response of the cells to these differing conditions. Cell clones can be subjected to additional testing as desired to evaluate further endpoints of interest and/or can be cryopreserved for future evaluations.
# To subgroup Phen-ah clones as Phen-alt-rev or Phen-alt-irr, a representative group of these clones is tested further by subjecting the clones to repeated rounds of exposure to the calibrated stress conditions. Other stress inducing agents also may be used. Each exposure cycle is followed by a period of time to allow the cells to recover, and thus, to resolve the stress environment. After each exposure round, the percentage of cells that are resistant to the stress inducing agent or condition is recorded. […] The parental cell response that has been used in the examples below is defined as greater than 99% sensitivity to the calibrated stress conditions agent or condition, as evidenced by cell cycle arrest and/or cell death following exposure to the SR induction agent. Other stress response endpoints may be used and will depend upon the nature of the stress inducing agent used; these endpoints are incorporated herein.
# The murine mammary epithelial cells designated CDNR4 were grown in their preferred growth medium (42% DMEM, 42% Hams F-12, 12% FBS, 1% 100×L-glutamine, 1% pen-strep, 0.5% to 1% bovine pituitary extract) until approximately 6 million cells were available. Cells were removed from the expansion flasks, counted, and replated at a rate of 500,000 cells per […] flask in growth medium. The flasks were assigned randomly to one of two groups: a vehicle-alone exposure (control group); an ENU-exposure (treated) group. […] For group 1 flasks, a volume of growth medium equal to the volume of ENU was added to the flasks. The cells were exposed to this solution for 1 hour at 37° C.; at the end of this time the solution was removed, the cells were washed with PBS at 37° C., and the cells were re-fed with fresh growth medium.
# At the end of 2 weeks, the cells were removed from the flasks with trypsin/EDTA and passed through a 20 to 25 micron pore size sterile Nytran filter. The cell suspension was evaluated by light microscopy for evidence of large clumps, and was re-filtered if necessary using a new sterile Nytran filter of the same size to remove any apparent large clumps of cells. […]
# [2] = tested on: CDNR4 cells; experiment: Determination of the SRID-50% level of 6-TG (calibrated stress conditions); assay type: cell-based, murine
# Procedure: The calibrated stress conditions and the SRID-x % level are determined ideally using parental, control, or vehicle-exposed cells. This portion of the assay requires that several variables, including cell plating density, calibrated stress conditions level, and duration of stress conditions exposure be optimized simultaneously. These variables are interdependent such that each affects the outcome of the other, thereby making this portion of the assay one of the most critical. To achieve high sensitivity for detection of assay endpoints, it is important that the maximum number of cells be evaluated; however, optimal calibrated stress conditions are achieved at relatively low cell plating densities. In addition, cell plating densities and the SKID-x % level of stress inducing agent chosen for use in the assay must be such that fewer than one positive endpoint per well occurs in the assay. Using cell survival as an example, if multiple surviving cell clones are identified in the same well(s) during an experiment, then the cell plating density must be reduced and/or the SRID-x % level must be increased so that the frequency of occurrence of surviving clones is reduced to less than one per well. Thus, optimization of these variables is necessary.
# Pilot studies that evaluate a range of cell plating densities and a range of calibrated stress conditions levels for the stress inducing agent of choice are used and are applied to untreated, control or parental cells. It is advisable to use a low plating density that results in rapid expression of stress resolution pathways (within 3 to 4 days where possible), or as quickly as possible after calibrated stress conditions exposure. In spite of potentially significant differences between cells of different types from different tissues and from different species, preliminary results from the SR assay support the conclusion that the optimal plating density for many cell types falls within a predictable range. […] These values can serve as starting points for empirical determination of the optimal cell plating density for the cells of interest to be used in the assay.
# After estimating the optimal cell plating density, dose response curves are generated for the calibrated stress conditions agent of interest. For experiments in which cell survival is the phenotype of interest, work with the assay completed to date supports the conclusion that calibrated stress conditions levels that reduce expression of pro-survival pathways to a level that results in survival of one or fewer clones in 50% of the wells of a 96 well plate (defined as the SRID-50%) is the optimal level for assessment of damage avoidance pro-survival pathways. Use of these levels also results in a sufficiently robust expression of damage tolerance paths to make it possible to evaluate differences or changes in expression of these pathways between cell types and/or between differing exogenous exposures. Because cell plating density and level of calibrated stress inducing agent are inter-dependent, it may be necessary to perform several pilot studies using differing cell plating densities and a range of stress-response inducing levels to find the optimal combination of use with the cell type of interest in the assay.
# There are two limits associated with Poisson distribution principles that must be considered in selecting the SRID-x % level of stress inducing agent. First, stress induction levels that result in a response frequency, for the response type of interest, that is near or equal to 100% of the sites being evaluated should be avoided and the same considerations are true for stress induction levels resulting in responses frequencies near or equal to 0%. The SR assay cannot accurately quantify response frequencies near 100% or near 0%, and this limitation forms the one of the factors affecting the selection of the SRID-x % level. […]
# [3] = tested on: immortalized human bronchial epithelial cell line #1; experiment: Determination of the SRID-10% dose of 6-TG, cell line #1; assay type: cell-based; details: 600 to 1000 cells per well, 96 well plates
# Procedure: (§1) Two immortalized, human bronchial epithelial cells lines were expanded in their preferred growth medium and plated at the rate of 600 to 1000 cells per well in tissue culture wells of 96 well plates. Both cell lines were immortalized using hTERT technology. The cells were exposed to variable 6-TG concentrations that ranged up to 150 micrograms/ml 6-TG. For cell line #1; the SRID-10% dose of 6-TG was determined to be 110 micrograms/ml; for cell line #2 the SRID-10% dose of 6-TG was determined to be 60 micrograms/ml 6-TG. The mCE of cell line #1 was 41%; for cell line #2 it was 25%. Thus, the total pro-survival pathway functionality for cell line #1 was […] (0.41×110 microgms/ml 6-TG); for cell line #2 this value was calculated to be 15.
# [4] = tested on: immortalized human bronchial epithelial cell line #2; experiment: Determination of the SRID-10% dose of 6-TG, cell line #2; assay type: cell-based; details: 600 to 1000 cells per well, 96 well plates
# Procedure: as §1
structure (smiles),measurement,setting,value
"Nc1nc2nc[nH]c2c(=S)[nH]1 [6-TG, 6-thioguanine]",death of the cells during SR induction phase,"[1]; 6TG 30 micrograms/ml, one to 3 days after start, 600 cells per well",greater than 90%
same,cell death after the end of SR induction phase,"[1]; two to 3 days after 4 days of 6TG 30 micrograms/ml, all plates",~100%
same,time to cell cycle arrest of all cells after start of 6-TG exposure,[2]; 6TG 1 to 100 micrograms/ml,≤ 24 h
same,SRID-50% (1 viable clone in approximately 50% of wells of a 96-well plate),"[2]; CDNR4 cells, low plating density, 6-TG for four days",35 µg/mL
same,SRID-50%,"[2]; vehicle-exposed/parental CDNR4 cells, 500-600 cells per well of 96 well plate, 6-TG for four days",35 micrograms/ml
same,SRID-10% dose of 6-TG,[3],110 micrograms/ml
same,SRID-10% dose of 6-TG,[4],60 micrograms/ml 6-TG
"CN(N=O)C(N)=O [MNU, methylnitrosourea]",SR assay results with MNU as pre-exposure agent in place of ENU,[1]; compared with the ENU experiments,similar

# From US20130040291A1, “Detection and Quantification of Cellular Stress Response Resolution Pathway Expression and Functionality and the Effects of Agents or Conditions Thereupon” (priority 2011, published 2013)
